Measurements from patent US20230293464A1, “TREATMENT OF PANCREATIC DUCTAL ADENOCARCINOMA WITH MIRDAMETINIB” (SpringWorks Therapeutics Inc., priority 2022, published 2023).

Legend:
PDAC cell lines = test: Autophagic flux, mCherry-EGFP-LC3B autophagy reporter (flow cytometry, confocal imaging); format: cell-based; conditions: panel of PDAC cell lines, 24-hours treatment
Description: Autophagic flux was determined using flow cytometry. […] Live cell imaging was performed using confocal microscopy. FIG. 1D indicates the threshold of fluorescent intensity was set to include puncta and exclude cytosolic green and background fluorescence. Green and red puncta were quantified from FIG. 1C and plotted.

PDAC cells = test: Vacuole formation on apilimod treatment; format: cell-based; conditions: FIG. 3A
Excerpt: Cells were fixed and stained with EEA1 and LAMP1 antibodies and analyzed with confocal microscopy.

Structure (SMILES) | autophagic flux (PDAC cell lines) | vacuole formation (PDAC cells)
O=C(NOC[C@H](O)CO)c1ccc(F)c(F)c1Nc1ccc(I)cc1F (single isomer, unassigned) [mirdametinib] | substantially induced autophagic flux | 
Cc1cccc(/C=N/Nc2cc(N3CCOCC3)nc(OCCc3ccccn3)n2)c1 [apilimod] |  | dose-dependent vacuole formation
